# In patent publication US6743923B2, “Antirheumatic agent” (Shionogi & Co., Ltd., priority 1997, dated 2004):
# Marks after values point to notes of the source that are not given here.
# What was measured:
# [1] = system: NO production from activated macrophage; experiment: Inhibitory activity against NO production from mouse activated macrophage; type: cell-based; conditions: LPS
# Procedure: To BALB/c male mice was intraperitoneally administered 2 mL of a thioglycolate solution, and induced activated MΦ were collected after four days and used as NO producing cells. The cells were adjusted to 2×10^6 cells/mL and plated onto a 96-well microtiter plate at 2×10^5 cells/100 μL/well. 10 μL of 1 μg/mL of Compound Ia and LPS (lipopolysaccharide) were added thereto and incubated at 37° C. under 5% CO2 for 24 hours. 75 μL of the supernatant obtained after incubation and 75 μL of Griess reagent were incubated, and […] in the form of sodium nitrite was measured to determine the amount of NO in the supernatant.
# [2] = system: blood NOx level; experiment: Suppressive effect on blood NOx level in adjuvant arthritis rat; type: in vivo; conditions: oral, 28 days
# Procedure: An adjuvant arthritis model was prepared in the same manner as above, and the compounds were orally administered to the animals for 28 days beginning on the day before the adjuvant injection. Blood was then collected under anesthetization and the serum was ultracentrifuged. The supernatant was ultrafiltrated to prepare a sample for NOx (nitrite+nitrate) measurement.
# [3] = system: serum amyloid protein (SAP); experiment: Effect on MRL/l mouse blood acute phase protein SAP; type: in vivo; conditions: oral, five times a week, 13 weeks
# Procedure: After the last administration of the compound, blood was collected under anesthetization, and the serum was used for SAP measurement. SAP has been used as a marker for rheumatism. A 96-well plate was coated with rabbit anti-mouse SAP serum, and the serum to be tested was then added to the plate and incubated for 2 hours. After addition of sheep anti-mouse SAP serum, a rabbit anti-sheep IgG antibody labeled with alkaline phosphatase and then a substrate were added to the plate, and OD of developed color was measured at 405 nm.
# [4] = system: IL-6 production from neutrophil; experiment: Inhibitory activity against IL-6 production, LPS-stimulated neutrophil fraction from human peripheral blood; type: cell-based; conditions: 10 μg/mL LPS, 16-18 hours, RIA
# [5] = system: articular destruction in adjuvant arthritis; experiment: Rat adjuvant arthritis: inhibitory effect against articular destruction (X-ray score); type: in vivo
# Procedure: A rat adjuvant arthritis model, which is commonly used in an in vivo evaluation for antirheumatic agents, was employed in this evaluation. To prepare an arthritis model, heat-killed cells of Mycobacterium butyricum (Difco) were suspended in mineral oil, and a rat was intradermally injected with 0.05 mL of 1% solution of the suspension at the plantar of left hind leg.
# The right and left hind legs of the arthritis rats used in the above experiments were radiographed using a soft X-ray radiation and evaluated by the X-ray observation score for the bone destruction in the arthrosis. The effects were numerically evaluated by grading the articular destruction from 0 to 3 (0: normal; 1: low degree of articular and bone destruction; 2: medium degree of articular and bone destruction, and neogenesis of cartilage; 3: strong articular and bone destruction), and the efficacy in the drug-administered group was determined in comparison with the vehicle-administered group according to Wilcoxon U-test (*p<0.05, **p<0.01)(FIG. 2).
# [6] = system: transcription factor NFκB; experiment: Suppressive activity on transcription factor NFκB (HIV-1 LTR luciferase reporter in Jurkat cell); type: cell-based, human; conditions: for luciferase activity (%) mean ± standard error: TPA-PHA = 100
# Procedure: A recombinant plasmid (pGV-B.HIV-1LTR), in which HIV-1 (AIDS) virus promoter LTR containing two NFκB binding sites is ligated to upstream of firefly luciferase gene, was constructed, and the DNA was purified. This plasmid DNA was introduced by electroporation into a Jurkat cell, a human T cell leukemic cell line, and the cell was cultured for 48 hours. Subsequently, phytohemagglutinin (PHA, 0.5%), phorbol ester (TPA (12-O-tetradecanoylphorbol 13-acetate), 25 ng/mL), and a predetermined concentration of the test compound were added thereto to allow to react for 2 hours, and the cells were harvested, and the luciferase activity in the cellular extract was measured.
# [7] = system: IL-6 level in articular tissue; experiment: Rat adjuvant arthritis: repressive effect on the IL-6 level in articular tissue; type: in vivo; conditions: oral, 18 days after adjuvant injection, non-injected leg
# Procedure: Another adjuvant arthritis model animal was prepared apart from the above experiments, and a compound was orally administered to the animal for 18 days after the adjuvant injection. The non-injected leg was then amputated under anesthetization, epidermis of the amputated leg was ablated, the leg was frozen in liquid nitrogen, and the arthrosis part was crushed by a crushing machine. To a measured quantity of the crushed arthrosis, 3 mL of ice-cold PBS was added and homogenized with a homogenizer under ice-cooling. The resultant homogenate was centrifuged at 4° C. for 20 minutes at 3,000 rpm to collect the supernatant, which was then passed through a 0.45 μm filter to prepare a sample. The sample and MH60 BSF2 cells (derived from mouse, require IL-6) were incubated on a 96-well plate under defined conditions, and the absorbance was measured at two wave lengths of 540 nm and 690 nm. The IL-6 level in the sample was calculated based on the standard curve prepared using a recombinant human IL-6.
# [8] = system: IL-6 production from synovial membrane cells of RA patients; experiment: Inhibitory activity against IL-6 production, synovial membrane cells from RA patient; type: cell-based, human; conditions: synovial membrane cells from RA patient
# [9] = system: NZB/KN mouse; experiment: Inhibitory effect against bone destruction in spontaneous rheumatic model NZB/KN mouse; type: in vivo; conditions: male NZB/KN mice, oral, five times a week
# Excerpt: To male NZB/KN mice, in which a human RA-like pathology arises spontaneously due to their immunologically abnormal background, was orally administered Compound Ia once in a day (five times a week) for six months beginning at two-month-age. The mice which reached six month old (some were eight month old) were full-length radiographed under anesthetization and predetermined conditions using a soft X-ray generator (OM-55, Omic). According to the method of Nakamura, et. al. [Arthritis. Rheum., 34, 171-179 (1991)], the number of the lesions observed in the bones and articular regions in the whole body were counted on the basis of the soft X-ray radiographed films, and the total number of the observed lesions were defined as the number of the bone disorders in the animal. The results were shown using mean±standard deviation, and significance test was performed according to Dunnett-t test (*p<0.05, ** p<0.01: vs. vehicle group).
smiles,measurement,setting,value
"CCN1CC/C(=C\c2cc(C(C)(C)C)c(O)c(C(C)(C)C)c2)S1(=O)=O [Compound Ia, (E)-2-Ethyl-5-(3,5-di-tert-butyl-4-hydroxy)benzylidene-1,2-isothiazolidine-1,1-dioxide]",NO^2- Production,"[1]; 0.8 μM compound, 24 hours",27.3 ± 0.94 μM/2 × 10^5 cells
same,NO^2- Production,"[1]; 3.1 μM compound, 24 hours",12.3 ± 2.50 μM/2 × 10^5 cells
same,NO^2- Production,"[1]; 12.5 μM compound, 24 hours",<1.0*** μM/2 × 10^5 cells
same,NO^2- Production,"[1]; 50 μM compound, 24 hours",<1.0*** μM/2 × 10^5 cells
same,NO^2- Production,"[1]; 100 μM compound, 24 hours",<1.0*** μM/2 × 10^5 cells
same,concentration at which NO production was inhibited in a dose-dependent manner,[1]; mouse activated macrophage,0.8 to 12.5 µM
same,IC50,"[1]; mouse activated macrophage, 24 hours",3000 nM
same,dose with dose-dependent and significant inhibitory effect on the increase of blood NOx level,[2],≥ 3 mg/kg/day
same,effect on blood SAP,[3]; 50 mg/kg/day,significant results
same,effect on blood SAP,[3]; 2-50 mg/kg/day,repressive tendency in a dose-dependent manner
same,IC50,[4],20 µM
same,dose with dose-dependent and significant inhibitory effect against the articular destruction,[5]; adjuvant-injected leg,≥ 3 mg/kg/day
same,dose with dose-dependent and significant inhibitory effect against the articular destruction,[5]; non-injected leg,≥ 1 mg/kg/day
same,luciferase activity (%) mean ± standard error,"[6]; Experiment-1, 5 μM",82.2 ± 8.3%
same,luciferase activity (%) mean ± standard error,"[6]; Experiment-1, 10 μM",79.6 ± 5.4%
same,luciferase activity (%) mean ± standard error,"[6]; Experiment-1, 20 μM",54.6 ± 4.3%
same,luciferase activity (%) mean ± standard error,"[6]; Experiment-1, 50 μM",53.5 ± 5.9%
same,luciferase activity (%) mean ± standard error,"[6]; Experiment-2, 20 μM",86.4 ± 1.9%
same,luciferase activity (%) mean ± standard error,"[6]; Experiment-2, 50 μM",75.1%
same,luciferase activity (%) mean ± standard error,"[6]; Experiment-2, 100 μM",61.1 ± 3.9%
same,concentration at which luciferase activity was inhibited,"[6]; Jurkat cell, TPA-PHA",5 to 50 µM
same,dose with dose-dependent and significant inhibitory effect against the increase of the IL-6 level in the articular tissue,[7],≥ 3 mg/kg/day
same,IC50,[8],10 µM
same,dose with significant improving effect on the bone-articular lesions,[9],≥ 10 mg/kg/day
